As a reminder, the EC50 is the concentration giving half of the maximal effect. What is called IC50 is the concentration needed to halve the response being measured.

Converted amounts (≈) assume the structure as drawn. “And” between values parts separate entries of the source, which are not always exact repeats. Equal entries are not always repeated. Where two headings read alike, the source gives them in different places. Some results are limits rather than exact numbers.

Assay [1] concerns Zymoseptoria tritici. To be noted: in vivo.
Assay [2] has as its system Zymoseptoria tritici. Kind of assay: microbe, parasite or virus in culture. It counts as cell-based.
The target in assay [3] is mitochondrial succinate dehydrogenase (SDH). Briefly: biochemical. Also on record: species or system Zymoseptoria tritici.
Assay [4] addresses mitochondrial succinate dehydrogenase (SDH) (Zymoseptoria tritici, UniProt F9X9V6+F9XH52+O42772). Briefly: biochemical. To be noted: IC50.
Setting [5] is: Zymoseptoria tritici, read-out: EC50 Median.
Setting [6] is: Zymoseptoria tritici, read-out: EC50 Range.

Sequence of mitochondrial succinate dehydrogenase (SDH) (Zymoseptoria tritici, UniProt F9X9V6+F9XH52+O42772) (O42772 19-297): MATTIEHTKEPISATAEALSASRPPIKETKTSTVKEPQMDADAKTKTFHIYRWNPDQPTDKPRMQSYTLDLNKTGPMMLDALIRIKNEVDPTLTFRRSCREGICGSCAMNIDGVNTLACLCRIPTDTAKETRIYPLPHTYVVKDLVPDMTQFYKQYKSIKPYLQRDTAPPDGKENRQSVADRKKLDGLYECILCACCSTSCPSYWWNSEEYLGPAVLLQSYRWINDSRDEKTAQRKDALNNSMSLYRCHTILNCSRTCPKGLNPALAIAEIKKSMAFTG
Sequence of mitochondrial succinate dehydrogenase (SDH) (Zymoseptoria tritici, UniProt F9X9V6+F9XH52+O42772) (F9XH52 44-187): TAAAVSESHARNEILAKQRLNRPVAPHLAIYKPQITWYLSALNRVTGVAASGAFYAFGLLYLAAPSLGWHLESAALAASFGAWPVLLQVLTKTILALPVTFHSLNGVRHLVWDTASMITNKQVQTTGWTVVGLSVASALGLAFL
Sequence of mitochondrial succinate dehydrogenase (SDH) (Zymoseptoria tritici, UniProt F9X9V6+F9XH52+O42772) (F9X9V6 1-193): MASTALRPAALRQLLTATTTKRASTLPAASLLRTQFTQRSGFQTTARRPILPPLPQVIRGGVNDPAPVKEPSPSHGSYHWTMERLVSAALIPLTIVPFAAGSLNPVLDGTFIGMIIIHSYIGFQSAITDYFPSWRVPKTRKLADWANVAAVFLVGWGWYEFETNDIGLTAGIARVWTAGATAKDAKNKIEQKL
Sequence of mitochondrial succinate dehydrogenase (SDH) (Zymoseptoria tritici, UniProt F9X9V6+F9XH52+O42772) (F9WWR1 29-643 partner): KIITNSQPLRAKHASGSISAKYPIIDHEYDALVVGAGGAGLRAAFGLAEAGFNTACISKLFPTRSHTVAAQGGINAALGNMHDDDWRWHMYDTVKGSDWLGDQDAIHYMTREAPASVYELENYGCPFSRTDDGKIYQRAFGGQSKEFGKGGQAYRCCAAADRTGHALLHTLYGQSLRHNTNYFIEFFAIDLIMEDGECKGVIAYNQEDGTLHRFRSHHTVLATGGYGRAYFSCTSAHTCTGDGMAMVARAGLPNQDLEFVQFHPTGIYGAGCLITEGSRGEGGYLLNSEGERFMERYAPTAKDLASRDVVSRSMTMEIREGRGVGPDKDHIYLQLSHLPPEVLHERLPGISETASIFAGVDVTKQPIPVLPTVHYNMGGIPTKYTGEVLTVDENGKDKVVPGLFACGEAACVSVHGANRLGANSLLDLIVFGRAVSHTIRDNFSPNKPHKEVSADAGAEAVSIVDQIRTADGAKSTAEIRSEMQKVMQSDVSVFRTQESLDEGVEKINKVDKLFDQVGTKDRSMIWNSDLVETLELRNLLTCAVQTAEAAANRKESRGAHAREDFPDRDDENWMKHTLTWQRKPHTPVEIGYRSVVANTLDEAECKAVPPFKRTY

Consider `Cn1cc(C(=O)Nc2ccc(F)cc2-c2ccc(Cl)c(Cl)c2)c(C(F)F)n1` [Bixafen, bixafen], for which the Control efficacy with Zymoseptoria tritici [1] worked out at 0%. Also, the “application rate at which strain was well controlled” value with Zymoseptoria tritici [1] amounted to 3 mg/L. Further, in the assay with Zymoseptoria tritici [1], the “application rate at which strains were well controlled” value was 10 mg/L. Also, the half-maximal effective concentration (EC50) with Zymoseptoria tritici [2] was 0.03 µg/mL (≈ 0.0724 µM); in the assay with Zymoseptoria tritici [2] (Zymoseptoria tritici), 0.03 µg/mL (≈ 0.0724 µM); in the assay with Zymoseptoria tritici [2] (setting [5]), 0.063 µg/mL (≈ 0.152 µM); in the assay with Zymoseptoria tritici [2] (setting [6]), 0.017 to 0.406 µg/mL (≈ 0.041 to 0.98 µM). For the same molecule, the “EC50 Median” value in the assay on Zymoseptoria tritici [2] was found to be 0.096 µg/mL (≈ 0.232 µM). The IC50 was 31 nM and 49 nM in assay [3]; 33 nM and 38 nM in assay [4].

`CC(C)CC(C)c1sccc1NC(=O)c1cn(C)nc1C(F)(F)F` (stereo not drawn) [Penthiopyrad, penthiopyrad] showed an EC50 in the assay with Zymoseptoria tritici [2] (Zymoseptoria tritici) of 0.05 µg/mL (≈ 0.139 µM).

Regarding `Cn1cc(C(=O)Nc2ccccc2-c2cc(F)c(F)c(F)c2)c(C(F)F)n1` [Fluxapyroxad], in the assay with Zymoseptoria tritici [2], the EC50 stood at 0.04 µg/mL (≈ 0.105 µM) and the “RF in comparison with reference strain IPO323” value is on record as under 10. The same molecule had a half-maximal effective concentration (EC50) in the assay on Zymoseptoria tritici [2] (Zymoseptoria tritici) of 0.04 µg/mL (≈ 0.105 µM).

For `Cc1cc(OC(C)C)ccc1C(=O)C(C)(C)NC(=O)c1sccc1C` [Isofetamid, N‐[1,1‐dimethyl‐2‐(4‐isopropoxy‐o‐tolyl)‐2‐oxoethyl]‐3‐methylthiophene‐2‐carboxamide], in the assay on Zymoseptoria tritici [1], the “in planta control (in words)” value is listed as “not controlled”. Besides, the EC50 with Zymoseptoria tritici [2] was 0.06 µg/mL (≈ 0.167 µM); in the assay on Zymoseptoria tritici [2] (setting [5]), 0.09 µg/mL (≈ 0.25 µM); in the assay on Zymoseptoria tritici [2] (Zymoseptoria tritici, read-out: high EC50 values (upper end of the sensitivity range)) it was over 50 µg/mL. In addition, in the assay on Zymoseptoria tritici [2], the “EC50 Median” value was 0.096 µg/mL (≈ 0.267 µM).

In turn, `[Cl][Sn]([c]1ccccc1)([c]1ccccc1)[c]1ccccc1` [Fentin Cl, fentin chloride] yielded a 50% effective concentration (EC50) with Zymoseptoria tritici [2] of 0.07 µg/mL.

For the molecule `N#Cc1c(Cl)c(Cl)c(Cl)c(C#N)c1Cl` [Chlorothalonil, chlorothalonil], in the assay with Zymoseptoria tritici [2], the “Resistance factor (RF)” value was 0.8 and 1.2 and 1.3 and 1.4 and 0.7; the “sensitivity of strains (in words)” value is recorded as “sensitive”. The same molecule gave an EC50 in the assay with Zymoseptoria tritici [2] (Zymoseptoria tritici) of 0.13 µg/mL (≈ 0.489 µM).

`Cc1cccc(N(C)C(=S)Oc2ccc3ccccc3c2)c1` [Tolnaftate, tolnaftate]: the “growth in the presence of tolnaftate” value in the assay on Zymoseptoria tritici [2] is listed as “none of these strains was able to grow”. Besides, the concentration for a half-maximal effect (EC50) with Zymoseptoria tritici [2] (Zymoseptoria tritici) stood at 0.17 µg/mL (≈ 0.553 µM).

In the assay with Zymoseptoria tritici [2] (Zymoseptoria tritici), `O=C(Nc1ccccc1-c1ccc(Cl)cc1)c1cccnc1Cl` [Boscalid, boscalid] had an EC50 of 0.16 µg/mL (≈ 0.466 µM).

Regarding `O=C(NCCc1ncc(C(F)(F)F)cc1Cl)c1ccccc1C(F)(F)F` [Fluopyram, fluopyram], in the assay on Zymoseptoria tritici [1], the “application rate providing control” value is at least 30 mg/L. Moreover, the “in planta control (in words)” value with Zymoseptoria tritici [1] was “not controlled”. Besides, the EC50 in the assay on Zymoseptoria tritici [2] was 0.20 µg/mL (≈ 0.504 µM); in the assay on Zymoseptoria tritici [2] (Zymoseptoria tritici) it was 0.2 µg/mL (≈ 0.504 µM); in the assay with Zymoseptoria tritici [2] (setting [5]) it was 0.19 µg/mL (≈ 0.479 µM); in the assay on Zymoseptoria tritici [2] (setting [6]), 0.08 to 7.78 µg/mL (≈ 0.202 to 19.6 µM). Besides, the “EC50 Median” value in the assay on Zymoseptoria tritici [2] was 0.215 µg/mL (≈ 0.542 µM).

Values taken from PMC5814837 (Pest Management Science, 2017).
